For assay [1], the system named is isolated Drosophila brains.
A further assay concerns the target T1, dTRPA1(A)10b (Drosophila melanogaster, UniProt Q7Z020).
T1 construct: expressed in transfected cells; host or cells: HEK293
T1 sequence (Q7Z020 with tags, fused parts or gaps isoform Q7Z020-5): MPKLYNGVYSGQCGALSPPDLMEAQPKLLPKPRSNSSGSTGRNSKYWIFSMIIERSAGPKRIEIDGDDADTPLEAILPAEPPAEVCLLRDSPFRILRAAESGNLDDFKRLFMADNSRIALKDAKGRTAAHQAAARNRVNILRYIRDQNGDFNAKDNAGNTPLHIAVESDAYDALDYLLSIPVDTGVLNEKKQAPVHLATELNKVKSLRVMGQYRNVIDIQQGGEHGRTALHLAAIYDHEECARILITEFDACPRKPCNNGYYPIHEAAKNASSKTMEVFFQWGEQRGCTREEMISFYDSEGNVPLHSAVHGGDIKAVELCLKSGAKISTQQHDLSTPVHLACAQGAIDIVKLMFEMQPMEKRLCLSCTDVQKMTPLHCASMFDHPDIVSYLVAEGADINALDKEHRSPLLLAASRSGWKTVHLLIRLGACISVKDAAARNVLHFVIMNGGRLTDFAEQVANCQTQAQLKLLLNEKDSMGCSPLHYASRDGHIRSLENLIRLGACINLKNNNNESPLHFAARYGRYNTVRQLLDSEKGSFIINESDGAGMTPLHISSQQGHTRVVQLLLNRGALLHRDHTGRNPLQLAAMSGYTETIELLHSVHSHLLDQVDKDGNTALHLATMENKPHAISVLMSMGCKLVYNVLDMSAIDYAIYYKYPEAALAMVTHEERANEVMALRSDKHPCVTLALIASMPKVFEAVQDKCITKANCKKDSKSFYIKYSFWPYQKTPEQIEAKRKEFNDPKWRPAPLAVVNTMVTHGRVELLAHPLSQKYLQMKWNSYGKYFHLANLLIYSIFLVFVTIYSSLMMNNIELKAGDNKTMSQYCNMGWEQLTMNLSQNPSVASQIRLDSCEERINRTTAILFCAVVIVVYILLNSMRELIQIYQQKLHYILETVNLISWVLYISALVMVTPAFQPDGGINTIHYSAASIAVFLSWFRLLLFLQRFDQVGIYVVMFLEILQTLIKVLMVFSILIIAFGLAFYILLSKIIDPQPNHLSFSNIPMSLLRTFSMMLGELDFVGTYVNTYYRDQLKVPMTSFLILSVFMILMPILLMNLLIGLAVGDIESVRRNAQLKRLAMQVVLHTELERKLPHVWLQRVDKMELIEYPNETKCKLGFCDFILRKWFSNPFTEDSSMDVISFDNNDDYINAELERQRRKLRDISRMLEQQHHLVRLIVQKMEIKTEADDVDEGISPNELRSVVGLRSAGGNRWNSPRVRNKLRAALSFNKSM
The assay is classed as cell-based. Particulars: for change in intracellular Ca2+ on agonist administration: HEK293 cells expressing dTRPA1(A)10b, H2O2 10 μM, BITC 100 μM added at end of experiment. On the procedure:
(§1) (FIG. 1A) Cells expressing either dTRPA1, mTRPA1, or mCherry were Xray irradiated (0.5 nGy/cm^2/sec) for 60 sec while monitoring changes in intracellular Ca^2+. BITC (100 μM) was added at the end of the experiments to confirm TRPA1 expression. […] (FIG. 1B) As in (FIG. 1A), except cells were stimulated with H2O2 (10 μM) administration. […] One-way ANOVA with Tukey's multiple comparisons test.
(§2) The Xrs source (FIG. 3A) was mounted to a Zeiss 710 LSM confocal imaging system. Changes in intracellular Ca^2+ were detected using a Fluo-4 Direct™ calcium assay kit. Fluo-4 epifluorescence changes were computed as (Fi-Fo; ΔF)/Fo, where Fi, is the fluorescence intensity at any frame and F0, is the resting fluorescence. F0 was calculated as the averaged fluorescence of the first 3 frames before stimulation.

Assay [2] deals with HEK293 cells expressing mCherry. Put plainly: Intracellular Ca2+ imaging (Fluo-4) in HEK293 cells expressing mCherry control. It is filed as cell-based, human. The note with it: HEK293 cells expressing mCherry only; H2O2 10 μM; BITC 100 μM added at end of experiment. The procedure: as §1, §2
A further assay has as its target T2, mouse TRPA1 (mTRPA1) (Mus musculus, UniProt Q8BLA8).
T2 construct: expressed in transfected cells; host or cells: HEK293
As to the kind of experiment: Intracellular Ca2+ imaging (Fluo-4) in HEK293 cells expressing mTRPA1. The assay is classed as cell-based. Particulars: H2O2 10 μM, BITC 100 μM added at end of experiment. On the procedure: as §1, §2

Assay [3] has as its system isolated Drosophila brains. The note with it: brains perfused with 200 μM H2O2; electrode in vs out of brain p<0.0042; n=3.
Another assay concerns Drosophila. Particulars: flies fed food containing H2O2 (1%) for 5 hours vs vehicle; 1 hour acclimation; p<0.03; n=29-30.

Like-named read-outs stand apart in the source and are kept apart here.

T2 sequence (Q8BLA8 whole entry): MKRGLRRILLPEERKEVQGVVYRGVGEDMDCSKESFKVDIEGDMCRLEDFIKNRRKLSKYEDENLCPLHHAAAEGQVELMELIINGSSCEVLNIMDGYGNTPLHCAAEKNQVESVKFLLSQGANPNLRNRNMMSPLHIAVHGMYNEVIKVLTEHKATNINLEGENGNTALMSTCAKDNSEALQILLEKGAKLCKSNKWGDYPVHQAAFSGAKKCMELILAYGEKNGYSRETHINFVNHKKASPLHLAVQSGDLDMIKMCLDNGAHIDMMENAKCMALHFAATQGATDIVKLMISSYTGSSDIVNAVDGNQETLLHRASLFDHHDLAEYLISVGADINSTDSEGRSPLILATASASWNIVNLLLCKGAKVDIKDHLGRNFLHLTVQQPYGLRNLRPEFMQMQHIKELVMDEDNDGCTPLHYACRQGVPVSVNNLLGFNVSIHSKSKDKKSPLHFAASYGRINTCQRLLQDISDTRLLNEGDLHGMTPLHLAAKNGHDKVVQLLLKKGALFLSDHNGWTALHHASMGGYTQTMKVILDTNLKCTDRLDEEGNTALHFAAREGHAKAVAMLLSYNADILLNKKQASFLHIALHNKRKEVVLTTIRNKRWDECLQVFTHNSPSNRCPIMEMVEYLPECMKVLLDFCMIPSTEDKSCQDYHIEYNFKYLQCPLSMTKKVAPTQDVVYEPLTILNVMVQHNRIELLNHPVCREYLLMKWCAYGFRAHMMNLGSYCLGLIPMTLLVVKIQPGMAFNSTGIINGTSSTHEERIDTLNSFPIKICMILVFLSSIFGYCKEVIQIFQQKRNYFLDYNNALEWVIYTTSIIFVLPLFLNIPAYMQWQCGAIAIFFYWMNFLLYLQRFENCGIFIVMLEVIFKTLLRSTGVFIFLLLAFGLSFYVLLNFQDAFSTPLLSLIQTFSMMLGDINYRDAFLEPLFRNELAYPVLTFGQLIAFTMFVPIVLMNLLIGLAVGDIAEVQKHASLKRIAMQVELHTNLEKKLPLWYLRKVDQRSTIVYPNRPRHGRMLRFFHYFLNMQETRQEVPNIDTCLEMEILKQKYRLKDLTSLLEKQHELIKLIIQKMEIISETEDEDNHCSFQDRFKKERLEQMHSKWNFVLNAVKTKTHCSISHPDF

For `N[C@@H](Cc1ccc(O)c(I)c1)C(=O)O` [3IY, 3-iodotyrosine], in assay [1] (10 mg/mL orally administered to flies for 24 hr vs vehicle, p<0.013, n=13-15), the “effect on Xrs-stimulated DA release (AUC of amperometric signals) after DA depletion” value is given as “significantly reduces the ability of Xrs to stimulate DA release”.

`S=C=NCc1ccccc1` [BITC, benzyl isothiocyanate]: the “change in intracellular Ca2+ on agonist administration” value is given as “increases intracellular Ca^2+” on dTRPA1(A)10b, “modest increase in Ca^2+” in assay [2] and “increases intracellular Ca^2+” on mouse TRPA1 (mTRPA1).

On to `OO` [H2O2, hydrogen peroxide], for which the figures for the “change in intracellular Ca2+ on agonist administration” value (at dTRPA1(A)10b; in assay [2]; at mouse TRPA1 (mTRPA1)) were “promotes an acute increase in intracellular Ca^2+”, “not observed” and “not observed”, respectively. Further, in assay [3], the “DA release (peak amperometric current)” value was “stimulates DA release”. For the same compound, the “locomotion (total beam crossings over a 4 hr period)” value in the assay on Drosophila is “significantly stimulates locomotion”.

In the case of `CC(C)c1ccc(NC(=O)Cn2cnc3c2c(=O)n(C)c(=O)n3C)cc1` [HC-030031], the “effect on Xrs-stimulated DA release (AUC of amperometric current)” value in assay [1] (Xrs 0.1 Gy/sec for 250 msec, brains incubated 5 min with 1 μM TTX or 100 μM HC-030031 vs control/vehicle) was “inhibits Xrs-stimulated DA release”.

Regarding `NC1=N[C@H](O)[C@H]2[C@H]3O[C@]4(O)O[C@@H]([C@@H](O)[C@@]2(N1)[C@@H]4O)[C@]3(O)CO` [TTX, tetrodotoxin], in assay [1], the “effect on Xrs-stimulated DA release (AUC of amperometric current)” value is “robustly inhibits this release”.

As for `CC1(C)CC(O)CC(C)(C)N1[O]` [Tempol], on dTRPA1(A)10b (Xray irradiation, ROS scavenger present), the “effect on Xray-induced Ca2+ increases” value is given as “blocked”.

The values above are taken from US20250367323A1, “PLATFORM FOR RADIOLYTIC NEUROMODULATION” (THE UAB RESEARCH FOUNDATION, priority 2024, published 2025).
